Patent EP4205737A1, “COMPOSITION FOR PREVENTION, AMELIORATION, OR TREATMENT OF INFLAMMATORY DISEASES OR IMMUNE DISEASES COMPRISING GANCAONIN N AS ACTIVE INGREDIENT” (UNIVERSITY-INDUSTRY COOPERATION GROUP OF KYUNG HEE …, priority 2020, dated 2022)

Legend:
PGE2 = experiment: Western blotting of PGE2 in LPS-stimulated RAW264.7 cells; assay type: cell-based, murine; conditions: LPS 1 µg/mL, 5 to 40 µM, as treatment concentration increased (FIG. 2B)
Experimental: (§1) RAW264.7 cells and A549 cells were dispensed into 6-well plates (1 × 10^6 cells/well) and cultured under conditions of 37°C and 5% CO2. After the culturing, the Raw 264.7 cells were treated with 1 µg/mL of lipopolysaccharide (LPS) and the A549 cells were treated with 5 µg/mL of lipopolysaccharide (LPS) and with 5 µM to 40 µM of gancaonin N, and the cells were cultured for 24 hours or 6 hours. Then, the cells were lysed using a lysis buffer. In addition, the left lung extracted from each mouse was lysed using RIPA buffer. SDS-PAGE electrophoresis was performed on the cell and tissue lysates to separate proteins by side, and 5% bovine serum albumin was used for culturing and for blocking antibodies against PGE2 (1:500), IL-1β (1:500), IL-6 (1:500), TNF-α (1:500), i-NOS (1:500), COX-2 (1:1000), P-ERK1/2 (1:1000), ERK1/2 (1:3000), P-p38 (1:1000), p38 (1:3000), NF-κB p65 (1:1000), Lamin B1 (1:1000), and β-actin (1: 5,000).
To investigate the anti-inflammatory effect of gancaonin N, the inventors treated Raw264.7 cells with LPS and Gancaonin N, as described in Examples 1 to 6, and evaluated the expression level of inflammation-inducing factors. Thus, the inhibitory effect of gancaonin N on inflammation-related factors was specifically confirmed.

[1] = test system: LPS-induced acute lung injury (ALI) mouse model; experiment: Bronchoalveolar lavage fluid analysis (inflammatory cell infiltration), LPS-induced acute lung injury mouse model; assay type: in vivo, BALB/c mice; conditions: mice, 10 mg/kg or 30 mg/kg intraperitoneally one hour before intratracheal LPS
Experimental: (§2) 25 6-week-old female BALB/c mice having a weight of 18g to 20 g were purchased from BioLink (DBL CO., Eumseong, Chungcheongbuk-do, Korea), and reared in the animal laboratory of KyungHee University. To establish an LPS-induced acute lung injury model, all the mice were divided into five groups each group of which consisted of 5 mice, and the five groups were referred to as control, vehicle (only LPS treatment), gancaonin N (10 mg/kg), gancaonin N (30 mg/kg), and dexamethasone (3 mg/kg). Gancaonin N was intraperitoneally injected at a dose of 10 mg/kg or 30 mg/kg, and dexamethasone was intraperitoneally injected at a dose of 3 mg/kg as a positive control group. In addition, the control and vehicle groups were intraperitoneally injected with 4% DMSO in which gancaonin N was dissolved. […]
Bronchoalveolar lavage fluid (BALF) was obtained after anesthetizing each mouse with intranasal isoflurane. […] The cells were stained with the Diff-Quik kit (Sysmex, Kobe, Japan), observed under a microscope, and sorted, and then the total cells and neutrophils were counted.
(§3) The mouse models prepared as described in Examples 1 to 3 were treated with LPS to induce acute lung injury (ALI), and then the anti-inflammatory effect of gancaonin N was specifically evaluated for the mice of five groups (control, vehicle (only LPS), gancaonin N (10 mg/kg), gancaonin N (30 mg/kg), and dexamethasone (3 mg/kg)), […]

IL-6 = experiment: Western blotting of IL-6 protein in LPS-stimulated A549 cells; assay type: cell-based, human; conditions: LPS 5 µg/mL, 5 to 40 µM (FIG. 4C)
Experimental: as §1
(§4) For the pro-inflammatory cytokines whose mRNA expression inhibition was confirmed as above, the expression level of the protein encoded by the mRNA was further checked. To determine the protein expression level, A549 cells were treated with LPS and gancaonin N as described in Examples 1 to 8, and the protein expression levels were checked.

IL-1β = experiment: Western blotting of IL-1β protein in LPS-stimulated A549 cells; assay type: cell-based, human; conditions: LPS 5 µg/mL, 5 to 40 µM (FIG. 4B)
Experimental: as §1, §4

COX-2 [2] = experiment: Western blotting of COX-2 in lung of LPS-induced acute lung injury mouse model; assay type: in vivo, BALB/c mice; conditions: mice, 10 mg/kg or 30 mg/kg intraperitoneally, LPS-induced ALI, Western blotting (FIG. 8)
Experimental: (§5) 25 6-week-old female BALB/c mice having a weight of 18g to 20 g were purchased from BioLink (DBL CO., Eumseong, Chungcheongbuk-do, Korea), and reared in the animal laboratory of KyungHee University. To establish an LPS-induced acute lung injury model, all the mice were divided into five groups each group of which consisted of 5 mice, and the five groups were referred to as control, vehicle (only LPS treatment), gancaonin N (10 mg/kg), gancaonin N (30 mg/kg), and dexamethasone (3 mg/kg). Gancaonin N was intraperitoneally injected at a dose of 10 mg/kg or 30 mg/kg, and dexamethasone was intraperitoneally injected at a dose of 3 mg/kg as a positive control group. In addition, the control and vehicle groups were intraperitoneally injected with 4% DMSO in which gancaonin N was dissolved. Then, 10 µg/50 µL of LPS was intratracheally administered to the mice except for the control group one hour later (the control group mice were administered 50 µL of PBS), and the mice were sacrificed 12 hours later.
(§6) RAW264.7 cells and A549 cells were dispensed into 6-well plates (1 × 10^6 cells/well) and cultured under conditions of 37°C and 5% CO2. […]
(§7) To specifically investigate whether gancaonin N can inhibit pro-inflammatory factors in a mouse model, the protein expression levels of COX-2, IL-1β, and TNF-α were measured by Western blotting as described in Examples 1 to 6 above.

COX-2 [3] = experiment: Western blotting of COX-2 protein in LPS-stimulated A549 cells; assay type: cell-based, human; conditions: LPS 5 µg/mL, 5 to 40 µM (FIG. 4D)
Experimental: as §1, §4

TNF-α [4] = experiment: Western blotting of TNF-α in lung of LPS-induced acute lung injury mouse model; assay type: in vivo, BALB/c mice; conditions: mice, 10 mg/kg or 30 mg/kg intraperitoneally, LPS-induced ALI, Western blotting (FIG. 8)
Experimental: as §5, §6, §7

TNF-α [5] = experiment: Western blotting of TNF-α protein in LPS-stimulated A549 cells; assay type: cell-based, human; conditions: LPS 5 µg/mL, 5 to 40 µM (FIG. 4A)
Experimental: as §1, §4

[6] = test system: LPS-induced acute lung injury (ALI) mouse model; experiment: Lung wet/dry ratio measurement (pulmonary edema), LPS-induced acute lung injury mouse model; assay type: in vivo, BALB/c mice; conditions: mice, 10 mg/kg or 30 mg/kg intraperitoneally, LPS-induced ALI (FIG. 7)
Experimental: as §2
To determine the severity of pulmonary edema, the wet weight of the right upper lung was measured, the tissue was dried 60°C for 72 hours, and the dry weight was measured. Afterwards, the W/D ratio was calculated.
as §3

COc1ccc(-c2coc3cc(O)c(CC=C(C)C)c(O)c3c2=O)c(O)c1 [gancaonin N, 5,7-dihydroxy-3-(2-hydroxy-4-methoxyphenyl)-6-(3-methylbut-2-enyl)chromen-4-one]
expression level of protein of PGE2 (PGE2): significantly decreased
cell count in bronchoalveolar lavage fluid (BALF) ([1]; sacrificed 12 hours later (FIG. 6B)): significantly reduced
neutrophil count in bronchoalveolar lavage fluid (BALF) ([1]; sacrificed 12 hours later (FIG. 6C)): significantly reduced
protein expression of IL-6 (IL-6): significantly inhibited
protein expression of IL-1β (IL-1β): significantly inhibited
protein expression level of COX-2 in lung (COX-2 [2]): significantly reduced
protein expression of COX-2 (COX-2 [3]): significantly inhibited
protein expression level of TNF-α in lung (TNF-α [4]): significantly reduced
protein expression of TNF-α (TNF-α [5]): significantly inhibited
W/D ratio [6]: significantly lowered
